Data on 15 molecules can be found in patent US11702392B2, “Pyrimidinone derivatives as SHP2 antagonists” (MERCK PATENT GMBH, priority 2019, dated 2023).

Data set [1] concerns the target Full length SHP2 protein (Recombinant Human SHP-2) (Homo sapiens (Human), UniProt Q06124). Briefly: SHP2 biochemical assay (DiFMUP substrate, activating peptide IRS1_2pY). The conditions noted are these: activating peptide IRS1_2pY 140 nM, 60 min.
Description: The inhibition of SHP2 by compounds of the invention was monitored using the surrogate substrate DiFMUP after protein activation by a peptide bearing two appropriately spaced phosphotyrosine. […] The generation of the DiFMU product by activated SHP2 was monitored through Fluorescence measurement with a PerkinElmer Envision reader. The inhibitor dose response curves were analyzed with Genedata Screener.
A short description of data set [2]: Pharmacokinetics in female CD1 mice (oral / intravenous). In kind it is in vivo. The note with it: mouse; for AUC ng/ml*h (normalized to 1 mp/k) / Cmax ng/mL (normalized to 1 mg/k): normalized to 1 mg/kg; for Fz: oral. As for the experimental part: Female CD1 mice (N=3) received a single oral (gavage) or a single intravenous (bolus) injection of compound. […] Consecutive blood samples were taken sub-lingually under isofluorane inhalation from animals after 0.083 (IV), 0.25, 0.5, 1, 2, 4, 6 and 24 h and were further processed to obtain plasma. Samples were protein precipitated and analysed by LC/MS/MS.

The subject of data set [3] is HPAF-2 xenografts. The note with it: 50 mg/kg compound 23B or 60 mg/kg RMC-4550 QD oral gavage, CB17.SCID mice.
For data set [4], the system named is EBC-1 xenografts. In words: EBC-1 xenograft (cMET amplified non-small cell lung cancer). In kind it is in vivo. The conditions noted are these: 100 mg/kg QD oral gavage, CD-1 nude mice. From the text: CD-1 nude mice were inoculated with 5 million EBC-1 cells.
The subject of data set [5] is U87-MG xenografts. Briefly: U87-MG xenograft (PTEN LOF glioblastoma). The class given is in vivo, mouse. The conditions noted are these: 50 mg/kg QD oral gavage, CD-1 nude mice. From the text: CD-1 nude mice were inoculated with 10 million U87-MG cells.
In data set [6] the test system is KYSE-520 xenografts. In words: Kyse-520 xenograft (EGFR amplified esophageal cancer). The note with it: H2D Rag2 mice. From the text: H2D Rag2 mice were inoculated with 5 million KYSE-520 cells mixed with matrigel.
In vivo efficacy of compound 74a in an EGFR amplified setting was investigated in Kyse-520 xenografts. H2D Rag2 mice were inoculated with 5 million KYSE-520 cells mixed with matrigel.

In data set [7] the target is auto-activated mutant protein SHP2 E76K (Homo sapiens (Human), UniProt Q06124, E76K). In words: SHP2 E76K active mutant biochemical assay with and without activating peptide.
Sequence of auto-activated mutant protein SHP2 E76K (Q06124 whole entry E76K): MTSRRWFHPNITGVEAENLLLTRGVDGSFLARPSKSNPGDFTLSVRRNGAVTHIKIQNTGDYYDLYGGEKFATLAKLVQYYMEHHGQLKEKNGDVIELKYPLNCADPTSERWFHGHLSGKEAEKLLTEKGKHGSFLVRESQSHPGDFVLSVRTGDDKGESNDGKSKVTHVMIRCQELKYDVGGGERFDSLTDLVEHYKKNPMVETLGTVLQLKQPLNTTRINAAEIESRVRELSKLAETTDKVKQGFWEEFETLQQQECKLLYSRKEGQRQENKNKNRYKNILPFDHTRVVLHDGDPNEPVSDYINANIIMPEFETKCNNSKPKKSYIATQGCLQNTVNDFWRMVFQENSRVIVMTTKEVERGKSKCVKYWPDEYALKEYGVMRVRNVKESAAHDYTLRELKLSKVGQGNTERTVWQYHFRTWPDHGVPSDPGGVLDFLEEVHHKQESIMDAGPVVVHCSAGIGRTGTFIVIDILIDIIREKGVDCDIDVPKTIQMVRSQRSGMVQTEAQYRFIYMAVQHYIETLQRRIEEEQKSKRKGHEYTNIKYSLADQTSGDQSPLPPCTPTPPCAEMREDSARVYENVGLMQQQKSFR
Description: The inhibition of SHP2 by compounds of the invention was monitored using the surrogate substrate DiFMUP after protein activation by a peptide bearing two appropriately spaced phosphotyrosine. Full length SHP2 protein (Recombinant HumanSHP-2, E. coli derived Ser2Arg593, N-terminal 6His tag from R&D systems; 0.0.24 nM) was incubated with activating peptide, IRSI_2pY (New England Peptide, 140 nM) and DiFMUP (molecular probes, 80 uM) at RT in buffer (HEPES pH 7.2 60 mM, DDT 5 mM, KCl 75 mM, NaCl 75 mM, EDTA 1 mM, Tween 20 0.05%) in presence of compound (10 concentrations range, top concentration 50 μM) for 60 min. The generation of the DiFMU product by activated SHP2 was monitored through Fluorescence measurement with a PerkinElmer Envision reader. The inhibitor dose response curves were analyzed with Genedata Screener.
The subject of data set [8] is MiaPaCa-2 xenografts. The class given is in vivo, mouse. The conditions noted are these: 50 or 100 mg/kg QD oral gavage, H2D Rag2 mice. The source says: H2D Rag2 mice were inoculated with 3 million MiaPaCa-2 cells.
The target in data set [9] is Kv11.1 (hERG) ion channel (Homo sapiens (Human), UniProt Q12809). Briefly: hERG patch clamp in Kv11.1 (hERG) transfected HEK293 cells. In kind it is cell-based. The method, then: Inhibition of the ion channel hErg (or Kv11.1) current causes QT interval prolongation resulting in potentially fatal ventricular tachyarrhythmia called Torsade de Pointes.
Sequence of Kv11.1 (hERG) ion channel (Q12809 whole entry): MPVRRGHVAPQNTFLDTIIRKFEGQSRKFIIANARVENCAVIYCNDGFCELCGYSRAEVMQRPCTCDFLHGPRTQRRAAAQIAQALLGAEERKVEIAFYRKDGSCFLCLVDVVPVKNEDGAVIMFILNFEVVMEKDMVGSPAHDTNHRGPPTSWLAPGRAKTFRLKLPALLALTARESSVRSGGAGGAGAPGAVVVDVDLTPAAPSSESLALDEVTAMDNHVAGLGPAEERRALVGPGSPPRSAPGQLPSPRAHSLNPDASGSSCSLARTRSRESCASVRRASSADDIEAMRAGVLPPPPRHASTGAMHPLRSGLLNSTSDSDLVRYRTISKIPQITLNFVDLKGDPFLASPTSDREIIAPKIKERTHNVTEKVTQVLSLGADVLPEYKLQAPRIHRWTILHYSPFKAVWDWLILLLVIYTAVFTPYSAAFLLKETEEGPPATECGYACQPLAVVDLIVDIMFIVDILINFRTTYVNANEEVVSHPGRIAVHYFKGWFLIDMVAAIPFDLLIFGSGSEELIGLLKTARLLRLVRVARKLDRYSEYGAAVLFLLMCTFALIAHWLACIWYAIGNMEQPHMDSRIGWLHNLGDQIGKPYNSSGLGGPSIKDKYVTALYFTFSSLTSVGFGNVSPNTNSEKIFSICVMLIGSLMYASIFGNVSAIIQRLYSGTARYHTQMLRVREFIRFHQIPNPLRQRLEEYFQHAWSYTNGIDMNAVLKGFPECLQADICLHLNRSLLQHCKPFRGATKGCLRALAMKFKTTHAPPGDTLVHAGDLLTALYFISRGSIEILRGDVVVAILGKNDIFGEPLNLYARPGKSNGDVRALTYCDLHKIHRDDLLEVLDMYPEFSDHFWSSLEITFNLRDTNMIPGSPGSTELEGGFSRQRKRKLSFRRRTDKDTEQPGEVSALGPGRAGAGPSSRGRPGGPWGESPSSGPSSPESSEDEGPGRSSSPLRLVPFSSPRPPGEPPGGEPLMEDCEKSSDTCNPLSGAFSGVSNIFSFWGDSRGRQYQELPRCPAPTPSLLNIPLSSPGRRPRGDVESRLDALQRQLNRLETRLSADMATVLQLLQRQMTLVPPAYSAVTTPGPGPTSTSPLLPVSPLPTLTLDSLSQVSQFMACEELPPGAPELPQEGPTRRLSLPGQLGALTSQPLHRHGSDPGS
hERG ion channel activity was assessed using a patch clamp technique in stable Kv11.1 (hERG) transfected human embryonic kidney cell line (HEK293). Whole cell recordings were carried out with an automated patch clamp device Patchliner™ from Nanion Technologies, Munich following manufacturer recommendation. Different concentrations of the test compound or reference, quinidine, were applied to whole cells suspension and current was measured using a pulse pattern with fixed amplitudes.

Data set [10] relates to pERK1/2 in KYSE520 cells. In words: p-Erk cellular assay in KYSE520 (Mesoscale). In kind it is cell-based. The note with it: Homo sapiens, KYSE-520, 2 h, read-out: pERK1/2 in Cell KYSE520 IC50. The method, then: The effect of SHP2 inhibitors on pERK level was assessed using phospho-specific antibody using Mesoscale quantification platform. For measuring change in pERK levels using mesoscale, 30,000 cells of KYSE520 cells were plated in 96-well tissue culture treated plate in 175 μl volume of media. After an overnight incubation at 37° C., various SHP2 inhibitors were added in different concentration to each well maintaining duplicate wells across plates and incubated with compounds for 2 h at 37° C. followed by a wash with ice cold PBS buffer. The cells were then lysed in lysis buffer and processed and analyzed for p-ERK/ERK as per manufacturer's instructions (Mesoscale discovery, cat No. […]-3).

The test system of data set [11] is MCP-1 production in U937 cells. In words: Cytokine release assay: MCP-1 production in U937 cells stimulated with IL-6. In kind it is cell-based. As for the experimental part:
Selected compounds were tested in a cytokine release assay in monocytic cells (U937) to test their anti-inflammatory properties. Cells were plated in a 96-well cell culture plate using serum-free media. The cells were treated with indicated concentrations of SHP-2 inhibitors for 30 minutes followed by overnight stimulation with recombinant IL-6 (50 ng/mL). The MCP-1 production was measured in the culture supernatant using a MCP-1 AlphaLISA kit (Perkin Elmer).

Setting [12] is: 10, 30 or 100 mg/kg QD oral gavage.
[13] abbreviates: 0.8, 2.5 or 8 mg/kg QD oral gavage.

“Also recorded” adds a separate entry of the source.

Sequence of Full length SHP2 protein (Recombinant Human SHP-2) (Q06124 2-593): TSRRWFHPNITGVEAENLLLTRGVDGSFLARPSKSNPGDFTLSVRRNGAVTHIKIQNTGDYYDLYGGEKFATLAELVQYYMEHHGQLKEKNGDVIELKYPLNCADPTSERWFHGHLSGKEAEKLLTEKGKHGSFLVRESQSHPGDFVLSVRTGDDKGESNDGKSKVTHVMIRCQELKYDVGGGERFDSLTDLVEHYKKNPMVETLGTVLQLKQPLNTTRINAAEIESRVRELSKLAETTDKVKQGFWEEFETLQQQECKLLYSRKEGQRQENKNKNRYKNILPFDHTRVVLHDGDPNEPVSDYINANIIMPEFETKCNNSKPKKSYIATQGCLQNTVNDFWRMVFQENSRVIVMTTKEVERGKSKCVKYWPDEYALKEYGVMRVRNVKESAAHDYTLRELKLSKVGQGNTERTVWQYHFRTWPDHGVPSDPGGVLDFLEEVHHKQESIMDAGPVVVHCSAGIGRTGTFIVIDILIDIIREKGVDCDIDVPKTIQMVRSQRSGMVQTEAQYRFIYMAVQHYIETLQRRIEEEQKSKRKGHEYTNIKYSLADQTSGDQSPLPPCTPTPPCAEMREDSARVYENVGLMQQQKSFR

As to `C[C@@H]1OCC2(CCN(c3cc(=O)n(-c4cccc(Cl)c4Cl)c(C(F)F)n3)CC2)[C@@H]1N` (atropisomer, axis not shown; (M)) [Compound 20b, (3M)-6-[(3S,4S)-4-amino-3-methyl-2-oxa-8-azaspiro[4.5]decan-8-yl]-3-(2,3-dichlorophenyl)-2-(difluoromethyl)-3,4-dihydropyrimidin-4-one], the IC50 in data set [1] was 1100 nM.
On to `Cc1c(N2CCC3(CC2)Cc2ccccc2[C@@H]3N)nc(C)n(-c2cccc(Cl)c2Cl)c1=O` (atropisomer, axis not shown; (M)) [Compound 74c, (3M)-6-[(1R)-1-amino-1,3-dihydrospiro[indene-2,4′-piperidin]-1′-yl]-3-(2,3-dichlorophenyl)-2,5-dimethyl-3,4-dihydropyrimidin-4-one], for which the IC50 in [1] was determined as 250 nM.
The same measure, in the same setting: for `Cc1c(N2CCC3(CCC[C@@H]3N)CC2)nc(N)n(-c2cccc(Cl)c2Cl)c1=O` (atropisomer, axis not shown; (M)) [Compound 78c, (3M)-2-amino-6-[(1S)-1-amino-8-azaspiro[4.5]decan-8-yl]-3-(2,3-dichlorophenyl)-5-methyl-3,4-dihydropyrimidin-4-one] the value was 2100 nM.
As for `Cc1nc(N2CCC3(CC2)CO[C@@H](C)[C@H]3N)cc(=O)n1-c1cccc(Cl)c1Cl` (single isomer, unassigned) [Compound 3b], in data set [2], the “AUC ng/ml*h (normalized to 1 mp/k)” value stood at 1765 ng·h/mL, the “Cmax ng/mL (normalized to 1 mg/k)” value is given as 223 ng/mL and the Fz was 85%.
Consider `Cc1c(N2CCC3(CC2)CO[C@@H](C)[C@H]3N)nc(C)n(-c2cccc(Cl)c2Cl)c1=O` (single isomer, unassigned) [Compound 23b], for which the tolerability entry in data set [3], in [4], in [6] (setting [12]) and in [8] was “well tolerated” throughout. In addition, the tumor growth entry in data set [3] is “Significant tumor inhibition”; in data set [4], “reduces tumor growth; also recorded: Significant tumor growth inhibition”; in data set [5], “reduces tumor size as compared to baseline; also recorded: Tumor regression”; in [6] (setting [12]), “reduce growth of the tumor a significant amount; also recorded: dose-dependent significant tumor growth inhibition”. For the same molecule, the “AUC ng/ml*h (normalized to 1 mp/k)” value in data set [2] amounted to 1222 ng·h/mL. Moreover, the “Cmax ng/mL (normalized to 1 mg/k)” value in data set [2] came out at 177 ng/mL. Moreover, the Fz in data set [2] amounted to 100%. This molecule displayed an IC50 in data set [7] of 12000 nM.
For the molecule `Cc1c(N2CCC3(CC2)Cc2ncccc2[C@H]3N)nc(C)n(-c2cccc(Cl)c2Cl)c1=O` (single isomer, unassigned) [Compound 66b], in data set [2], the “AUC ng/ml*h (normalized to 1 mp/k)” value was found to be 2387 ng·h/mL, the “Cmax ng/mL (normalized to 1 mg/k)” value turned out to be 367 ng/mL and the Fz stood at 100%. The “Split between hErg and cell activity Ki (patch Clamp)/IC50 (KYSE)” value in [9] was 580.
Consider `Cc1c(N2CCC3(CCC[C@H]3N)CC2)nc(C)n(-c2cccc(Cl)c2Cl)c1=O` (single isomer, unassigned) [Compound 67a], for which the IC50 in [1] came to 19000 nM.
As for `Cc1c(N2CCC3(CCC[C@H]3N)CC2)nc(C)n(-c2cccc(Cl)c2Cl)c1=O` (single isomer, unassigned) [Compound 67b], in data set [10], the IC50 is 198 nM.
As for `Cc1c(N2CCC3(CC2)Oc2cnccc2C3N)nc(C)n(-c2cccc(Cl)c2Cl)c1=O` (single isomer, unassigned) [Compound 80c], the IC50 in data set [10] amounted to 420 nM.
On to `Cc1c(N2CCC3(CC2)Oc2ccccc2[C@H]3N)nc(C)n(-c2cccc(Cl)c2Cl)c1=O` (single isomer, unassigned) [Compound 81b], for which, in data set [2], the “AUC ng/ml*h (normalized to 1 mp/k)” value turned out to be 3270 ng·h/mL, the “Cmax ng/mL (normalized to 1 mg/k)” value came to 450 ng/mL and the Fz amounted to 48%.
Consider `Cc1c(N2CCC3(CC2)Cc2ccccc2[C@H]3N)nc(C)n(-c2cccc(Cl)c2Cl)c1=O` [Compound 74a, (3M)-6-[(1S)-1-amino-1,3-dihydrospiro[indene-2,4′-piperidin]-1′-yl]-3-(2,3-dichlorophenyl)-2,5-dimethyl-3,4-dihydropyrimidin-4-one], for which the IC50 in data set [1] came out at 1 nM. For the same molecule, in [6] (setting [13]), the tolerability entry is listed as “well tolerated” and the tumor growth entry is “reduce growth of the tumor a significant amount; also recorded: dose-dependent significant tumor growth inhibition”. In [2], the “AUC ng/ml*h (normalized to 1 mp/k)” value was found to be 2108 ng·h/mL, the “Cmax ng/mL (normalized to 1 mg/k)” value is 129 ng/mL and the Fz is 100%.
Regarding `Cc1c(N2CCC3(CC2)c2ncccc2C[C@H]3N)nc(C)n(-c2cccc(Cl)c2Cl)c1=O` [Compound 75, (3M)-6-[(6R)-6-amino-5,6-dihydrospiro[cyclopenta[b]pyridine-7,4′-piperidin]-1′-yl]-3-(2,3-dichlorophenyl)-2,5-dimethyl-3,4-dihydropyrimidin-4-one], the IC50 turned out to be 120 nM in [1] and 824 nM in data set [10].
On to `Cc1c(N2CCC3(CC2)C[C@@H](C)C[C@H]3N)nc(C)n(-c2cccc(Cl)c2Cl)c1=O` [Compound 77, (3M)-6-[(1R,3R)-1-amino-3-methyl-8-azaspiro[4.5]decan-8-yl]-3-(2,3-dichlorophenyl)-2,5-dimethyl-3,4-dihydropyrimidin-4-one], for which, in [11], the “MCP-1 production (FIG. 1)” value is listed as “suppressed MCP-1 production”.
Consider `Cc1c(N2C[C@H]3CC(CO)C[C@@]3(CN)C2)nc(C)n(-c2cccc(Cl)c2Cl)c1=O` (stereo partly drawn) [Compound 101, (3M)-6-[(3aR,6aS)-3a-(aminomethyl)-5-(hydroxymethyl)-octahydrocyclopenta[c]pyrrol-2-yl]-3-(2,3-dichlorophenyl)-2,5-dimethyl-3,4-dihydropyrimidin-4-one], for which, in [1], the IC50 was 230 nM.
With `Cc1nc(N2CCC3(CC2)CO[C@@H](C)[C@H]3N)c(CO)nc1-c1cccc(Cl)c1Cl` [RMC-4550, reference compound], the tumor growth result in [3] is reported as “Significant tumor inhibition”. In data set [2], the “AUC ng/ml*h (normalized to 1 mp/k)” value worked out at 735 ng·h/mL, the “Cmax ng/mL (normalized to 1 mg/k)” value came out at 85 ng/mL and the Fz is on record as 86%.
